Source: patent US20050107289A1, “Anti-microbial peptides and compositions” (priority 2001, published 2005)
Like-named read-outs stand apart in the source and are kept apart here. Non-standard residues stand in square brackets, D forms with d. Residues, ends and D or L forms follow the SMILES beside them.

Tests used:
[1] = tested on: S. aureus (MRSA) ATCC 33591; format: cell-based, Staphylococcus aureus; settings: for MRSA (in vitro activity): Table 9
In short: (§1)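 Broth macro- or microdilution MIC per NCCLS M7-A4. Peptides were serially 2-fold diluted in 5% DMSO/9% aqueous sucrose, about 400–2 μg/ml (dilution-series concentrations). Overnight cultures were diluted 4000-fold to an inoculum of about 2.5×10^5 cfu/ml.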

murine red blood cells [2] = assay: Red blood cell hemolysis; format: cell-based, mouse; parameters: RBC Hemolysis (HD50): unit not given here
In short: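 Hemolysis read as A560 of supernatant, scaled between saline (0%) and 1% Triton X-100 (100%) controls; peptides were serially diluted onto 5% murine red cells in saline plus 10% FBS and incubated 30 min at 37° C.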

[3] = tested on: vancomycin-resistant Enterococus faecalis (VRE)(ATCC 51575); format: cell-based, Enterococcus faecalis; parameters: key to VRE (in vitro activity): peptide concentration in μg/ml (broth dilution assay); settings: for VRE (in vitro activity): Table 9
In short: as §1

[4] = tested on: Bacillus cereus ATCC 11778; format: cell-based
In short: as §1

[5] = tested on: Streptococcus pneumoniae (ATCC 6301); format: cell-based
In short: as §1

[6] = tested on: S. aureus (MRSA) (ATCC No. 33591); assay: Time-killing curve, S. aureus MRSA ATCC 33591; format: cell-based, Staphylococcus aureus; settings: FIG. 8a; at MIC concentrations
Description: (§2) The speed at which several of the cyclic peptides of the invention kill E. coli JM 109 (DE3), Enterococcus faecium SP 180 and S. aureus (MRSA) (ATCC No. 33591 and 33592) was further tested at room temperature and/or at 37° C. A lower temperature tends to enrich the bacterial cultures for mature bacteria because the bacteria are not growing quickly. […] The presence or absence of immature bacteria in the culture may influence the rate at which the bacteria are killed, because immature bacteria tend to be more susceptible to many forms of antibiotics.
To generate the data shown in FIG. 8a, the log of the number of colony forming units (cfu) per ml of culture was determined as a function of time after treatment of S. aureus (MRSA) (ATCC No. 33591) with cyclo[KHLWLW] (closed circles), cyclo[KRKWLWLW] (closed triangles), and cyclo[KQRWLWLW] (open squares) at MIC concentrations. […] The reduction in cfu count was greater than 3 log units. Cyclic peptide cyclo[KHLWLW] killed effectively all S. aureus (MRSA) within about 60 minutes.

E. coli JM109(DE3) = format: cell-based, Escherichia coli; settings: JM109
In short: as §1

[7] = trypsin, α-chymotrypsin, subtilisin, blood plasma; RP-HPLC over 24 h
Description: Cyclic peptides having SEQ ID NO:13, 18, 26, and 29 were assayed for proteolytic susceptibility.

[8] = tested on: S. aureus MRSA (ATCC 33591); assay: Mouse peritonitis model, MRSA protection; format: in vivo, mice; parameters: PD50 MRSA: unit not given here
Description: Bacteria were prepared for in vivo using procedures similar to those as previously described. […] S. aureus MRSA bacteria (ATCC 33591) were grown at 37° C. in 5 mL of Antibiotic Medium-3 (AM-3, Difco Laboratories) with agitation for 12 hours to a stationary phase. Cells were collected by centrifugation, washed twice with saline solution and resuspended in about 10 mL of saline to an O.D.650 of 1.2. This suspension was diluted ten times in a sterilized 5% mucin (Difco) in saline to a concentration of 2-4×10^7 cfu/ml (actual inoculum size was verified by colony counts on agar plates).
Peptides of the invention were tested in mice to ascertain whether they would protect the mice against bacterial infection using procedures similar to those described in N. Frimodt-Moller et al., The Mouse Peritonitis/Sepsis Model, in Zak et al. (eds.) HANDBOOK OF ANIMAL MODELS OF INFECTION 127-37 (Academic Press 1999).
Male Balb-C mice (6 weeks old, approximately 20 g) were used in the study. Staphylococcus aureus MRSA bacteria (ATCC 33591) were grown at 37° C. with agitation for 12 hours to a stationary phase. Cells were collected by centrifugation, washed twice with saline and resuspended to an O.D.650 of 1.4. This suspension was diluted ten times with saline and resuspended to a concentration of 3-5×10^7 cfu/ml. For each peptide five groups of eight mice per group were infected I.P. with 0.5 ml of the above Staphylococcus aureus MRSA preparation (lethal dose). Forty-five minutes to an hour after infection, each group was treated with a different dose of peptide and a control group received vehicle only. Mice were monitored for fourteen days; death was defined as the end point. Median protecting doses (PD50) were calculated following the Reed and Muench method. […] For IV and SQ models peptide was administered immediately after IP infection.

Toxicity studies in mice = format: in vivo; parameters: LD50(IP) / LD50(IV): unit not given here
Description: Peptides were tested for toxicity in vivo using procedures similar to those described previously. […] Mice (male Balb-C) in groups of 4-8 were given via IV, IP or SQ single bolucdoses of peptides and monitored for 14 days. Toxicity of sublethal doses was assessed based on the behavior and appearance of the mice after peptide administration compared to control mice receiving only vehicle. Signs of acute toxicity included lack of activity, red feet and tail, faster breathing. Death was defined as the end point for lethal doses of peptides.
Toxicology Studies: Initial toxicology studies in mice were conducted to evaluate various routes of drug administration, maximum tolerable dose, and blood and tissue toxicity. Two mice in each dose study were injected with a bolus intravenous (IV), intraperitoneal (IP), or subcutaneous (SQ) doses of peptide SEQ ID NO:8, 18, and 26. For each study, two control animals received vehicle only and no peptide. […] Signs of acute toxicity included any one of the following: lack of activity, red feet and tail, or faster breathing. […] A regimen of […] of peptide SEQ ID NO:18 for three consecutive days was administered to two mice IP and two mice SQ.

E. coli JM109 (DE3) = assay: Time-killing curve, E. coli; format: cell-based, Escherichia coli; settings: FIG. 8b; at MIC concentrations
Description: as §2
In FIG. 8b, the log of the number of E. coli colony forming units (cfu) per ml of culture is plotted versus time treated with cyclo[KRKWLWLW] (closed triangles), cyclo[KQRWLWLW] (closed circles), cyclo[KHLWLW] (closed squares), and cyclo[KKWLW] (open squares) at MIC concentrations. […] Cyclic peptide cyclo[KHKLWLW] kills effectively all E. coli within about 90 minutes. Cyclic peptides cyclo[KRKWLWLW] and cyclo[KKWLW] kill effectively all of the E. coli within about 130 minutes. […] Nonetheless, these cyclic peptides kill both types of bacteria very quickly.

murine red blood cells [9] = settings: cited from earlier work
[10] = Proton transport in vesicles with pH gradient; settings: vesicles pH 6.5 inside, pH 5.5 outside
Description: Formation of supramolecular structures that can permeabilize membranes was also inferred from proton transport activity. Vesicles were prepared having pH 6.5 inside and pH 5.5 in the outside bulk solution. The collapse of the imposed pH gradient in these vesicles, upon formation of the putative transmembrane channel structure, was studied by monitoring the fluorescence intensity of an entrapped pH-sensitive dye. (V. E. Carmichael et al, in J.Am. Chem. Soc. (1989), vol. 111, pages 767-769). Addition of peptide cyclo[-(Trp-D-Leu)3-Gln-D-Leu-]
Unilamellar vesicles were prepared by the reverse-phase evaporation using DPPC, OPPC, cholesterol in the ratio of 1:1:2 in a solution containing 5(6)-carboxyfluorescein (20 mM in phosphate/saline buffer: 137 mM NaCl, 2.6 mM KCI, 6.4 mM Na2HPO4, 1.4 mM KH2PO4, pH 6.5) according to the method of F. Szoka et al. in Proc. Natl. Acad. Sci. USA (1978), vol. 75, pages 4194-4198. Liposomes were then sized by multiple extrusions through Nucleopore® polycarbonate membranes (10 times, 50 psi, using 0.8 and 2×0.4 micron filter stacks) and the untrapped 5(6)-carboxyfluorescein was removed by size exclusion chromatography (Sephadex G-25 column 1×30 cm) using the same phosphate/saline buffer according to the method of F. Olson et al. in Biochim. […] Vesicles formed in this way are approximately 150 nanometer in diameter as determined by electron microscopy. […] In each experiment, […] of the stock vesicle solution (3.5×10^−3 M in phospholipids) was added to pH 5.5 buffer (1.3 ml, 137 mM NaCl, 2.6 mM KCl, 6.4 Na2HPO4, 1.4 KH2PO4) and placed in a 1 cm quartz cuvette inside a stirring thermojacketed sample holder of the fluorescence instrument and equilibrated at 25° C. for 15 minutes with gentle stirring. To the cuvette, through an injector port, […] of the peptide dissolved in DMSO was added with continuous fluorescence monitoring at 520 nm (excitation at 470 nm). The observed data were then normalized for comparison into the fractional change in fluorescence ((I0-It)/(I0-I∞)) (V. E. Carmichael et al, in J.Am. Chem. Soc. (1989), vol. 111, pages 767-769)).

[11] = media a: anti-microbial media-3 (AM-3)

Row | Compound | MRSA MIC ([1]; ATCC 33591) | S. aureus (MRSA) MIC ([1]; ATCC 33591) | MRSA (in vitro activity) [1, 11] | RBC Hemolysis (HD50) (murine red blood cells [2]) | VRE MIC ([3]; ATCC 51575) | VRE (in vitro activity) ([3]; media a: AM-3) | B. cerius MIC [4] | S. pneum. MIC [5] | proton / ion transport activity [10] | also measured
1 | CC(C)C[C@H]1NC(=O)[C@H](Cc2c[nH]c3ccccc23)NC(=O)[C@@H](CCCCN)NC(=O)[C@H](CCCNC(=N)N)NC(=O)[C@@H](CCCCN)NC(=O)[C@H](Cc2c[nH]c3ccccc23)NC(=O)[C@@H](CC(C)C)NC(=O)[C@H](Cc2c[nH]c3ccccc23)NC1=O [SEQ ID NO:19, D-Lys-Arg-D-Lys-Trp-D-Leu-Trp-D-Leu-Trp] (cyclo([dK]R[dK]W[dL]W[dL]W)) | 15 µg/mL | 10 µg/mL | 15 | 50 | 8 µg/mL | 8 | 3 µg/mL | 5 µg/mL |  | time to kill effectively all S. aureus (MRSA) [6]: within about five minutes
2 | CC(C)C[C@H]1NC(=O)[C@H](CCCCN)NC(=O)[C@@H](CCCCN)NC(=O)[C@H](Cc2c[nH]c3ccccc23)NC(=O)[C@@H](CC(C)C)NC(=O)[C@H](Cc2c[nH]c3ccccc23)NC1=O [SEQ ID NO:26, cyclo-(D-Lys-Lys-D-Leu-Trp-D-Leu-Trp)] (cyclo(K[dL]W[dL]W[dK])) | 10 µg/mL | 10 µg/mL | 10 | 80 | 40 µg/mL | 40 | > 10 µg/mL | 30 µg/mL |  | In Vitro MRSA MIC ([1]; ATCC 33591): 10 µg/mL; E. coli MIC (E. coli JM109(DE3)): 17 µg/mL; In Vitro RBC MIC (murine red blood cells [2]): 80 µg/mL; In Vitro VREF MIC ([3]; ATCC 51575): 40 µg/mL; proteolytic stability [7]: stable; PD50 S. aureus MRSA infection [8]: 15 mg/kg; PD50 protective dose where 50% of animals survive ([8]; FIG. 6, mice challenged with lethal doses of MRSA): 10 ± 2 mg/kg; PD50 MRSA ([8]; Table 12, male Balb-C mice, IP infection, IP peptide): 15; In Vivo MRSA PD50 ([8]; Table 13): 15 mg/kg; protection of mice from MRSA infection ([8]; single bolus IP dose of appropriate amount, 45-60 min after infection): completely protect; LD50(IP) (Toxicity studies in mice; Table 12, male Balb-C mice): 75; LD50(IV) (Toxicity studies in mice; Table 12, male Balb-C mice): 24; LD50 at 14 days (Toxicity studies in mice; male, Balb-C, mouse, in vivo, ip, Table 13): 75 mg/kg; signs at highest dose (Toxicity studies in mice; mice, IP 50 mg/kg): signs of acute toxicity that were not observable after one hour; tolerability (Toxicity studies in mice; mice, IP, maximum tested dose 50 mg/kg): tolerated up to the maximum tested IP dose
3 | CC(C)C[C@H]1NC(=O)[C@H](Cc2c[nH]cn2)NC(=O)[C@@H](CCCCN)NC(=O)[C@H](Cc2c[nH]c3ccccc23)NC(=O)[C@@H](CC(C)C)NC(=O)[C@H](Cc2c[nH]c3ccccc23)NC1=O [SEQ ID NO:27, cyclo-(D-Lys-His-D-Leu-Trp-D-Leu-Trp)] (cyclo(H[dL]W[dL]W[dK])) | 10 µg/mL | 10 µg/mL | 10 | 25 | 40 µg/mL | 40 | 5 µg/mL | 5 µg/mL |  | E. coli MIC (E. coli JM109(DE3)): 100 µg/mL; time to kill effectively all S. aureus (MRSA) [6]: ≤ 60 min; time to kill effectively all E. coli (E. coli JM109 (DE3)): ≤ 90 min
4 | MELLITIN [linear peptide that is hemolytic against mammalian red blood cells, reference compound] |  |  |  |  |  |  |  |  |  | MRSA (in vitro activity) ([1]; media b: cation adjusted Meuller Hinton broth (MHBII)): 6.3; RBC Hemolysis (HD50) (murine red blood cells [2]; Table 9): 10; VRE (in vitro activity) ([3]; media c: Brain Heart Infusion (BHI)): 6.3; hemolytic concentration against mammalian red blood cells in vitro (murine red blood cells [9]): about 10 μg/ml
5 | cyclo[-(Gln-D-Leu)4] |  |  |  |  |  |  |  |  | does not display any ion transport activity | 
6 | cyclo[-(Trp-D-Leu)3-Gln-D-Leu-] [SEQ ID NO:2] |  |  |  |  |  |  |  |  | rapid collapse of the pH gradient | 
7 | cyclo[-(^MeN-D-Ala-Phe)4-] |  |  |  |  |  |  |  |  | does not promote proton transport activity | 
